Laboratory results from patent publication US6770747B1, “Genes encoding protein having activity of transferring sugar onto aurone” (Suntory Limited, priority 1999, dated 2004).
Entries after “also recorded” stand apart in the source; their conditions may differ.

Tests used:
[1] = system: Ph7GTb; assay: Glycosyl transferase activity of Ph7GTb cDNA recombinant protein; format: biochemical, petunia (Petunia hybrida); settings: crude extract, UDP-glucose, HPLC, as in Example 1
Procedure: (§1) To 50 μl of the crude enzyme solution were added 0.1 M Tris-HCl, pH 8.0, and 150 μl of 0.05% 2-ME, and then incubated at 30° C. for 10 minutes. Then 5 μl of 4.66 mM aureusidin and 50 μl of 5 mM UDP-glucose were added thereto, and was allowed to react at 30° C. for 1 hour. After the reaction was stopped by adding 200 μl of 90% acetonitrile containing 5% trifluoroacetic acid (TFA), it was centrifuged at 15,000 rpm and 4° C. for 3 minutes. The supernatant thus obtained was filtered (pore size 0.45 μm, 4 mm Millex-LH, Millipore) to remove insoluble substances. The filtrate was analyzed by high performance liquid chromatography.
(§2) The analytical condition was as follows: The column used was Asahipak-ODP-50 (4.6 mm φ×250 mm, Showa Denko). The mobile phase comprised water containing 0.1% TFA as solution A and 90% CH3CN containing 0.1% TFA as solution B. After a linear gradient from 20% solution B to 100% solution B for 20 minutes, 100% solution B was retained for 5 minutes. The flow rate was 0.6 ml/min. Detection used A380 nm, and an absorption spectrum at 250-400 nm using Shimadzu PDA detector SPD-M6A.
(§3) The transformants obtained in Example 8 were cultured, extracted and the enzymatic activity was measured as in Example 1. The enzymatic activity was measured using aureusidin as the substrate. […]

[2] = system: AmGT1; assay: Glycosyl transferase activity of the AmGT1 cDNA recombinant protein; format: biochemical, snapdragons (Antirrhinum majus); settings: crude extract, UDP-glucose, HPLC, as in Example 1
Procedure: as §1, §2
The transformant obtained in Example 4 was cultured, extracted and the enzymatic activity was measured as in Example 1.

[3] = system: product of the pS.b UFGT1 gene; assay: Glycosyl transferase activity of pS.b UFGT1 gene product (crude E. coli extract, UDP-glucose, HPLC); format: biochemical, Scutellaria baicalensis; settings: crude enzyme solution, 30° C., HPLC detection of glycosides
Procedure: The activity of the pS.b UFGT1 gene derived from Scutellaria baicalensis of transferring a glycosyl group to aurones was determined using an expression vector pESBGT-1 in E. coli prepared by the following method.
The PCR product was digested with NdeI and BamHI, and then was ligated to the NdeI- and BamHI-digested pET-3a vector (Stratagene) to construct pESBGT-1 (FIG. 1). Using each of pESBGT-1 and pET-3a vector, it was transformed into Epicurian Coli BL21 (DE3) (Stratagene). The transformants were incubated overnight at 37° C. in 3 ml of a LB medium containing 50 μg/ml of ampicillin. The preculture (500 μl) was added to 50 ml of a LB medium containing 50 μg/ml of ampicillin, and cultured until A600 reached 0.6-1.0. Then isopropyl-β-D-thiogalactopyranoside (IPTG) was added thereto to a final concentration of 0.5 mM, which was cultured at 28° C. for 4 hours and centrifuged (5000 rpm, 10 minutes, 4° C.) to collect the cells.
The pellets were suspended in 5 ml of the buffer (10 mM sodium phosphate, pH 6.5, 1 mM β-mercaptoethanol (2-ME)). After the E. coli cells were disrupted by a sonicator, it was centrifuged (15,000 rpm, 5 minutes, […]), and the supernatant obtained was used as a crude enzyme solution for the next enzyme reaction.
In addition to aureusidin, the enzymatic activity was determined using naringenin or luteolin as the substrate.
To 50 μl of the crude enzyme solution were added 0.1 M Tris-HCl, pH 8.0, and 150 μl of 0.05% 2-ME, and then incubated at 30° C. for 10 minutes. Then 5 μl of 4.66 mM aureusidin and 50 μl of 5 mM UDP-glucose were added thereto, and was allowed to react at 30° C. for 1 hour. […] The filtrate was analyzed by high performance liquid chromatography. […]
To 20 μl of the crude enzyme solution were added 25 μl of 0.1 M citric acid-phosphate buffer, pH 6.5, 5 μl each of 5 μM substrate, and 25 μl of 5 mM UDP-glucose in a total volume of 250 μl, and then incubated at 30° C. for 30 minutes. […] The filtrate was analyzed by high performance liquid chromatography. […]

[4] = system: Ph7GTa; assay: Glycosyl transferase activity of Ph7GTa cDNA recombinant protein; format: biochemical, petunia (Petunia hybrida); settings: crude extract, UDP-glucose, HPLC, as in Example 1
Procedure: as §1, §2, §3

[5] = system: product of the pS.b UFGT1 gene; settings: substrate baicalein; cited from earlier work
[6] = target: T1, flavonoid-3-glycosyl transferase derived from gentians (Gentiana triflora, UniProt Q96493); settings: substance used as substrate; enzyme expressed in E coli; cited from earlier work
T1 construct: host or cells: E. coli
T1 sequence (Q96493 1-453): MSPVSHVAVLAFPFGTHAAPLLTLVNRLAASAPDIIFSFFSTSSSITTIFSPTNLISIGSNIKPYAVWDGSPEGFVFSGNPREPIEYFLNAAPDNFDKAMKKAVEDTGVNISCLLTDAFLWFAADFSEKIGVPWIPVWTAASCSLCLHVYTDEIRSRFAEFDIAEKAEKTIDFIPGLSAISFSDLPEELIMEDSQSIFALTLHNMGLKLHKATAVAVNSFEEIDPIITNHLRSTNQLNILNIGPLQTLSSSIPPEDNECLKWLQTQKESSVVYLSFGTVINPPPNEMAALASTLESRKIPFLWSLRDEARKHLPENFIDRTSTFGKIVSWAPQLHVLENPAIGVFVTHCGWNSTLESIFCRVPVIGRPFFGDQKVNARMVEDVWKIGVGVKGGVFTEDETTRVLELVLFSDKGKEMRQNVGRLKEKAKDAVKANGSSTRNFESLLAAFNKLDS

[7] = target: T2, flavonoid-3-glycosyl transferase derived from grapes (Vitis vinifera, UniProt P51094); settings: substance used as substrate; activity determined in E. coli; cited from earlier work
T2 construct: host or cells: E. coli
T2 sequence (P51094 1-456): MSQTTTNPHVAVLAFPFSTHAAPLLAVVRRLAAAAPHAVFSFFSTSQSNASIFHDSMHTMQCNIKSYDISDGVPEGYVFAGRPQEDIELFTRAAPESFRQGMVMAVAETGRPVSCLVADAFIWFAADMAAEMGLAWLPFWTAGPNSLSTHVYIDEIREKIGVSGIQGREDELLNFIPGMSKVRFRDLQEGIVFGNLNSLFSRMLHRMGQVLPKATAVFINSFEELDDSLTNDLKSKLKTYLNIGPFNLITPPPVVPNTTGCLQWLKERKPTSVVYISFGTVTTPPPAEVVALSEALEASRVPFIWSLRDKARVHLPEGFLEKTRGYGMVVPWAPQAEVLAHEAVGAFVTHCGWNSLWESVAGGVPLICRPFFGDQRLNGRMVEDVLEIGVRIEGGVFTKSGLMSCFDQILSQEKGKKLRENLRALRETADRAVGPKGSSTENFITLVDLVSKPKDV

Molecule	glycosilation of the substrate by the pS.b UFGT1 product [3]	glycosyl transferase activity relative to a 100% activity to delphinidins [6] [%]	further results
O=C1/C(=C/c2ccc(O)c(O)c2)Oc2cc(O)cc(O)c21 [aureusidin]	can glycosilate		glycosilation of the substrate by Ph7GTb [1]: activity of glycosilating; glycosyl transfer to the substrate by AmGT1 [2]: can transfer a glycosyl group to the positions 6 and 4; glycosilation of the substrate by Ph7GTa [4]: activity of glycosilating
O=c1cc(-c2ccccc2)oc2cc(O)c(O)c(O)c12 [baicalein]			portion detected as 7 glycoside after the reaction is complete [5]: ~100%
O=c1c(O)c(-c2ccc(O)cc2)oc2cc(O)cc(O)c12 [kaempferol]		7.0	
O=c1cc(-c2ccc(O)c(O)c2)oc2cc(O)cc(O)c12 [luteolin]	can glycosilate		
O=c1c(O)c(-c2cc(O)c(O)c(O)c2)oc2cc(O)cc(O)c12 [myricetin]		4.4	
O=C1C[C@@H](c2ccc(O)cc2)Oc2cc(O)cc(O)c21 [naringenin]	very little effect; also recorded: no reaction occurred		
O=c1c(O)c(-c2ccc(O)c(O)c2)oc2cc(O)cc(O)c12 [quercetin]		6.5	Km [7]: 15 µM; Vmax [7]: 18.9 nkatals/mg
cyanidins		61	Km [7]: 30 µM; Vmax [7]: 905 nkatals/mg
delphinidins		100	
pelargonidins		38	
